Laboratory results reported in patent US20160345582A1, “HERBICIDE COMPOSITIONS FOR WEED CONTROL” (Valent U.S.A., Corporation, priority 2015, published 2016).

Key:
Fall Panicum = test: Field test 2013 (Example 2), post emergence weed control in corn; assay type: in vivo; settings: Study 3; 30 DAT; mesotrione 105, pyroxasulfone 90 g ai/ha; applied at V5 corn stage
Waterhemp = test: as above; assay type: in vivo, Amaranthus tuberculatus; settings: 30 DAT, applied at V5 corn stage
Ivyleaf Morningglory = test: Field test 2011 (Example 1), post emergence weed control in corn; assay type: in vivo, Ipomoea hederacea; settings: Study 1; 30 DAT; topramezone 18.4, pyroxasulfone 90 g ai/ha; applied at V5 corn stage, weeds 4 to 10 inches
Experimental: (§1) In 2011, two field tests were conducted using similar protocols. Both studies were completed in Indiana, United States. Weeds were 4 to 10 inches in height at time of application. Untreated checks were included in the trial, however pyroxasulfone alone is not effective for post emergence weed control and was therefore not included as a standalone treatment. Roundup Ready corn (Zea maize) was used in the test as the crop plant utilizing a natural population of weeds. All of the treatments contained non-ionic surfactant at 0.25% v/v and were applied at the V5 corn growth stage. Applications were made utilizing a hand boom sprayer with application area for each treatment equating to 10 feet by 200 feet.
(§2) Topramezone was administered at 18.4 grams/hectare. Pyroxasulfone was administered at 90 grams/hectare.
(§3) Thirty days after treatment (“DAT”) readings were taken to determine the survival of Ivyleaf Morningglory, Yellow Nutsedge, Velvetleaf and Annual Grass. Survival ratings were taken by counting the number of alive and dead plants at the time of the reading. All data was analyzed using Bartlett's test and with p value of […] for determining significance of the results. The Effect of Topamezone and Pyroxasulfone on Weeds (% Control).”

Yellow Nutsedge [1] = test: as above; assay type: in vivo, Cyperus esculentus; settings: Study 1; 30 DAT; topramezone 18.4, pyroxasulfone 90 g ai/ha; applied at V5 corn stage, weeds 4 to 10 inches
Experimental: as §1, §2, §3

Velvetleaf [2] = test: as above; assay type: in vivo, Abutilon theophrasti; settings: Study 2; 30 DAT; topramezone 18.4, pyroxasulfone 90 g ai/ha; applied at V5 corn stage, weeds 4 to 10 inches
Experimental: as §1, §2, §3

Annual Grass = test: as above; assay type: in vivo; settings: Study 2; 30 DAT; topramezone 18.4, pyroxasulfone 90 g ai/ha; applied at V5 corn stage, weeds 4 to 10 inches
Experimental: as §1, §2, §3

Common Ragweed = test: Field test 2013 (Example 2), post emergence weed control in corn; assay type: in vivo, Ambrosia artemisiifolia; settings: Study 4; 30 DAT; topramezone 18.4, pyroxasulfone 90 g ai/ha; applied at V5 corn stage
Giant Foxtail = test: as above; assay type: in vivo, Setaria faberi; settings: Study 5; 30 DAT; topramezone 18.4, pyroxasulfone 90, atrazine 840 g ai/ha; applied at V5 corn stage
Foxtail = test: as above; assay type: in vivo, Setaria species; settings: Study 6; 30 DAT; topramezone 18.4, pyroxasulfone 90 g ai/ha; applied at V5 corn stage
Palmer Amaranth = test: as above; assay type: in vivo, Amaranthus palmeri; settings: Study 7; 30 DAT; topramezone 18.4, pyroxasulfone 90 g ai/ha; applied at V5 corn stage
Giant Ragweed = test: as above; assay type: in vivo, Ambrosia trifida; settings: Study 7; 30 DAT; topramezone 18.4, pyroxasulfone 90 g ai/ha; applied at V5 corn stage
Yellow Nutsedge [3] = test: as above; assay type: in vivo, Cyperus esculentus; settings: Study 7; 30 DAT; topramezone 18.4, pyroxasulfone 90 g ai/ha; applied at V5 corn stage
Barnyardgrass = test: as above; assay type: in vivo, Echinochloa crus-galli; settings: 30 DAT, topramezone 18.4, pyroxasulfone 90 g ai/ha, applied at V5 corn stage
Broadleaf signalgrass = test: as above; assay type: in vivo, Brachiaria platyhylla; settings: Study 7; 30 DAT; topramezone 18.4, pyroxasulfone 90 g ai/ha; applied at V5 corn stage
Velvetleaf [4] = test: as above; assay type: in vivo, Abutilon theophrasti; settings: Study 9; 30 DAT; topramezone 18.4, pyroxasulfone 90 g ai/ha; applied at V5 corn stage

## CS(=O)(=O)c1ccc(C(=O)C2C(=O)CCCC2=O)c([N+](=O)[O-])c1 [Mesotrione, 2[4-(methylsulfonyl)-2-nitrobenzoyl]cyclohexane-1,3-dione]
Fall Panicum
  % Control Fall Panicum: 98%
Waterhemp; Study 3, mesotrione 105, pyroxasulfone 90 g ai/ha
  % Control Waterhemp: 80%

## Cc1c(C(=O)c2cnn(C)c2O)ccc(S(C)(=O)=O)c1C1=NOCC1 [Topramezone, [3-(4,5-dihydro-1,2-oxazol-3-yl)-4-mesyl-o-tolyl](5-hydroxy-1-methylpyrazol-4-yl)methanone]
Ivyleaf Morningglory
  % Control Ivyleaf Morningglory: 68%
Yellow Nutsedge [1]
  % Control Yellow Nutsedge: 73%
Velvetleaf [2]
  % Control Velvetleaf: 95%
Annual Grass
  % Control Annual Grass: 33%
Waterhemp; Study 6, topramezone 18.4, pyroxasulfone 90 g ai/ha
  % Control Waterhemp: 94%
Waterhemp; Study 8, topramezone 18.4, pyroxasulfone 90 g ai/ha
  % Control Waterhemp: 90%
Common Ragweed
  % Control Common Ragweed: 94%
Giant Foxtail
  % Control Giant Foxtail: 87%
Foxtail
  % Control Foxtail: 98%
Palmer Amaranth
  % Control Palmer Amaranth: 93%
Giant Ragweed
  % Control Giant Ragweed: 91%
Yellow Nutsedge [3]
  % Control Yellow Nutsedge: 60%
Barnyardgrass; Study 7
  % Control Barnyardgrass: 80%
Barnyardgrass; Study 9
  % Control Barnyardgrass: 93%
Broadleaf signalgrass
  % Control Broadleaf signalgrass: 90%
Velvetleaf [4]
  % Control Velvetleaf: 90%
